Results: PubChem BioAssay AID256 (DTP/NCI, 2004)
“And” between values parts separate entries of the source, which are not always exact repeats. Equal entries are not always repeated. Toxic doses and inconclusive results are not listed.

System: CD2F1 mice, L1210 leukemia ip, survival T/C
Experiment: NCI In Vivo Anticancer Drug Screen. Data for tumor model L1210 Leukemia (intraperitoneal) in CD2F1 (CDF1) mice
Settings: higher = longer survival
How it was run: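 Tumor-bearing mice (transplanted tumor) were split into treated and vehicle control groups, and the measured endpoint of each treated group was divided by that of its vehicle controls.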

[1] = endpoint: mean survival time, dose: 100.0 mg/kg/injection, schedule: Q01DX009 (ip), vehicle: saline with Tween-80
[2] = endpoint: mean survival time, dose: 200.0 mg/kg/injection, schedule: Q01DX009 (ip), vehicle: saline with Tween-80
[3] = endpoint: mean survival time, dose: 100.0 mg/kg/injection, schedule: Q04DX003 (ip), vehicle: saline with Tween-80
[4] = endpoint: mean survival time, dose: 100.0 mg/kg/injection, schedule: Q01DX001 (ip), vehicle: saline with Tween-80
[5] = endpoint: mean survival time, dose: 200.0 mg/kg/injection, schedule: Q01DX001 (ip), vehicle: saline with Tween-80
[6] = endpoint: mean survival time, dose: 400.0 mg/kg/injection, schedule: Q01DX001 (ip), vehicle: saline with Tween-80
[7] = endpoint: mean survival time, dose: 200.0 mg/kg/injection, schedule: Q04DX003 (ip), vehicle: saline with Tween-80
[8] = endpoint: mean survival time, dose: 400.0 mg/kg/injection, schedule: Q04DX003 (ip), vehicle: saline with Tween-80
[9] = endpoint: mean survival time, dose: 50.0 mg/kg/injection, schedule: Q01DX009 (ip), vehicle: Klucel (hydroxypropylcellulose) (HPC)
[10] = endpoint: mean survival time, dose: 100.0 mg/kg/injection, schedule: Q01DX009 (ip), vehicle: Klucel (hydroxypropylcellulose) (HPC)
[11] = endpoint: mean survival time, dose: 50.0 mg/kg/injection, schedule: Q01DX009 (ip), vehicle: saline with Tween-80
[12] = endpoint: median survival time, dose: 100.0 mg/kg/injection, schedule: Q01DX009 (ip), vehicle: saline

## CC(C)NCC(O)COc1cccc2ccccc12 (stereo not drawn)
endpoint: mean survival time, dose: 4.0 mg/kg/injection, schedule: Q01DX009 (ip), vehicle: Klucel (hydroxypropylcellulose) (HPC)
  T/C: 94 % of control and 98 % of control and 103 % of control
endpoint: mean survival time, dose: 8.0 mg/kg/injection, schedule: Q01DX009 (ip), vehicle: Klucel (hydroxypropylcellulose) (HPC)
  T/C: 94 % of control and 95 % of control and 98 % of control
endpoint: mean survival time, dose: 16.0 mg/kg/injection, schedule: Q01DX009 (ip), vehicle: Klucel (hydroxypropylcellulose) (HPC)
  T/C: 91 % of control and 96 % of control and 101 % of control
endpoint: mean survival time, dose: 32.0 mg/kg/injection, schedule: Q01DX009 (ip), vehicle: Klucel (hydroxypropylcellulose) (HPC)
  T/C: 87 % of control and 93 % of control and 96 % of control
endpoint: mean survival time, dose: 64.0 mg/kg/injection, schedule: Q01DX009 (ip), vehicle: Klucel (hydroxypropylcellulose) (HPC)
  T/C: 84 % of control and 102 % of control and 105 % of control
endpoint: mean survival time, dose: 128.0 mg/kg/injection, schedule: Q01DX009 (ip), vehicle: Klucel (hydroxypropylcellulose) (HPC)
  T/C: 120 % of control

## CS(=O)(=O)OCC(=O)NCCCCNC(=O)COS(C)(=O)=O
endpoint: mean survival time, dose: 100.0 mg/kg/injection, schedule: Q01DX001 (ip), vehicle: saline
  T/C: 101 % of control
endpoint: mean survival time, dose: 200.0 mg/kg/injection, schedule: Q01DX001 (ip), vehicle: saline
  T/C: 101 % of control

## O=C(CCl)c1ccc(Cl)cc1
endpoint: mean survival time, dose: 12.0 mg/kg/injection, schedule: Q01DX009 (ip), vehicle: saline with Tween-80
  T/C: 102 % of control
endpoint: mean survival time, dose: 24.0 mg/kg/injection, schedule: Q01DX009 (ip), vehicle: saline with Tween-80
  T/C: 104 % of control
endpoint: mean survival time, dose: 48.0 mg/kg/injection, schedule: Q01DX009 (ip), vehicle: saline with Tween-80
  T/C: 103 % of control

## COc1cc(C(=O)NNC(=O)c2ccc(Cl)cc2)cc(OC)c1OC
[1]
  T/C: 94 % of control
[2]
  T/C: 86 % of control

## NC(=O)N/N=C\c1ccco1
[3]
  T/C: 102 % of control

## NC(=O)c1c(Cl)n(C2OC(CO)C(O)C2O)c2ncnc(N)c12 (stereo not drawn)
endpoint: mean survival time, dose: 1.0 mg/kg/injection, schedule: Q01DX005 (ip), vehicle: distilled water + Tween-80
  T/C: 103 % of control
endpoint: mean survival time, dose: 2.0 mg/kg/injection, schedule: Q01DX005 (ip), vehicle: distilled water + Tween-80
  T/C: 101 % of control
endpoint: mean survival time, dose: 4.0 mg/kg/injection, schedule: Q01DX005 (ip), vehicle: distilled water + Tween-80
  T/C: 106 % of control
endpoint: mean survival time, dose: 8.0 mg/kg/injection, schedule: Q01DX005 (ip), vehicle: distilled water + Tween-80
  T/C: 103 % of control
endpoint: mean survival time, dose: 16.0 mg/kg/injection, schedule: Q01DX005 (ip), vehicle: distilled water + Tween-80
  T/C: 114 % of control
endpoint: mean survival time, dose: 32.0 mg/kg/injection, schedule: Q01DX005 (ip), vehicle: distilled water + Tween-80
  T/C: 109 % of control

## CC(C)(C)c1ccc(O)c(C(=O)N/N=C/c2ccccc2O)c1
[4]
  T/C: 97 % of control
[5]
  T/C: 104 % of control
[6]
  T/C: 93 % of control

## CC12CCC(=O)C=C1CCCC2O (stereo not drawn)
endpoint: mean survival time, dose: 100.0 mg/kg/injection, schedule: Q04DX003 (ip), vehicle: saline sonified
  T/C: 97 % of control
endpoint: mean survival time, dose: 200.0 mg/kg/injection, schedule: Q04DX003 (ip), vehicle: saline sonified
  T/C: 112 % of control

## NNC(=O)CCCCCC/C=C/CCCCCCCO
endpoint: mean survival time, dose: 50.0 mg/kg/injection, schedule: Q01DX001 (ip), vehicle: saline with Tween-80
  T/C: 98 % of control
[4]
  T/C: 108 % of control
[5]
  T/C: 101 % of control

## N=C(N=c1cc(C(=O)NC(=N)NC(=N)Nc2ccc(Cl)cc2)n(C(=N)NC(=N)Nc2ccc(Cl)cc2)c(C(=O)NC(=N)NC(=N)Nc2ccc(Cl)cc2)c1)NC(=N)Nc1ccc(Cl)cc1
[3]
  T/C: 98 % of control
[7]
  T/C: 100 % of control
[8]
  T/C: 100 % of control

## O=C1NC(=O)C2(CCc3ccc(N(CCCl)CCCl)cc32)N1 (stereo not drawn)
endpoint: mean survival time, dose: 6.25 mg/kg/injection, schedule: Q01DX009 (ip), vehicle: Klucel (hydroxypropylcellulose) (HPC)
  T/C: 117 % of control
endpoint: mean survival time, dose: 6.25 mg/kg/injection, schedule: Q01DX009 (oral), vehicle: saline with Tween-80
  T/C: 96 % of control and 97 % of control
endpoint: mean survival time, dose: 12.5 mg/kg/injection, schedule: Q01DX009 (oral), vehicle: saline with Tween-80
  T/C: 100 % of control and 105 % of control
endpoint: mean survival time, dose: 25.0 mg/kg/injection, schedule: Q01DX009 (ip), vehicle: Klucel (hydroxypropylcellulose) (HPC)
  T/C: 154 % of control and 157 % of control
endpoint: mean survival time, dose: 25.0 mg/kg/injection, schedule: Q01DX009 (oral), vehicle: saline with Tween-80
  T/C: 102 % of control and 104 % of control
[9]
  T/C: 122 % of control and 103 % of control
endpoint: mean survival time, dose: 50.0 mg/kg/injection, schedule: Q01DX009 (oral), vehicle: saline with Tween-80
  T/C: 100 % of control and 104 % of control
[10]
  T/C: 97 % of control
endpoint: mean survival time, dose: 100.0 mg/kg/injection, schedule: Q01DX009 (oral), vehicle: saline with Tween-80
  T/C: 107 % of control and 109 % of control
endpoint: mean survival time, dose: 200.0 mg/kg/injection, schedule: Q01DX009 (oral), vehicle: saline with Tween-80
  T/C: 106 % of control and 110 % of control

## c1ccc2c(c1)nnn2-c1ccncc1
[3]
  T/C: 91 % of control
[7]
  T/C: 104 % of control

## CCCCNC(=O)C1C2CCC(C2)C1C(=O)NCCCC (stereo not drawn)
[3]
  T/C: 98 % of control
[7]
  T/C: 98 % of control
[8]
  T/C: 90 % of control

## O=C1CC(CO)CN1CCc1ccccc1 (stereo not drawn)
[1]
  T/C: 96 % of control
[2]
  T/C: 92 % of control
endpoint: mean survival time, dose: 400.0 mg/kg/injection, schedule: Q01DX009 (ip), vehicle: saline with Tween-80
  T/C: 95 % of control

## Cc1cc(OCCOC(=O)Nc2c(Cl)cccc2Cl)cc(C)c1Cl
[11]
  T/C: 92 % of control
[1]
  T/C: 100 % of control
[2]
  T/C: 107 % of control

## CCC(C(=O)O)C(=O)O.[NH2-].[NH2-].[Pt+2]
endpoint: mean survival time, dose: 12.5 mg/kg/injection, schedule: Q04DX003 (ip), vehicle: saline
  T/C: 101 % of control
endpoint: mean survival time, dose: 200.0 mg/kg/injection, schedule: Q04DX003 (ip), vehicle: saline
  T/C: 87 % of control
endpoint: median survival time, dose: 3.12 mg/kg/injection, schedule: Q01DX009 (ip), vehicle: saline
  T/C: 108 % of control
[12]
  T/C: 95 % of control

## COc1ccc(OC)c2c1CCC(=O)C2
endpoint: mean survival time, dose: 12.5 mg/kg/injection, schedule: Q01DX009 (ip), vehicle: other
  T/C: 102 % of control
endpoint: mean survival time, dose: 25.0 mg/kg/injection, schedule: Q01DX009 (ip), vehicle: other
  T/C: 104 % of control
endpoint: mean survival time, dose: 50.0 mg/kg/injection, schedule: Q01DX009 (ip), vehicle: other
  T/C: 102 % of control
endpoint: mean survival time, dose: 100.0 mg/kg/injection, schedule: Q01DX009 (ip), vehicle: other
  T/C: 107 % of control
endpoint: mean survival time, dose: 200.0 mg/kg/injection, schedule: Q01DX009 (ip), vehicle: other
  T/C: 107 % of control

## CCCC/C=C/C1(O)CCCCC1
[11]
  T/C: 98 % of control
[1]
  T/C: 103 % of control
[2]
  T/C: 103 % of control

## COCCCNCCCN1CC1
endpoint: mean survival time, dose: 16.62 mg/kg/injection, schedule: Q01DX009 (ip), vehicle: saline
  T/C: 115 % of control
endpoint: mean survival time, dose: 31.25 mg/kg/injection, schedule: Q01DX009 (ip), vehicle: saline
  T/C: 107 % of control
endpoint: mean survival time, dose: 62.5 mg/kg/injection, schedule: Q01DX009 (ip), vehicle: saline
  T/C: 94 % of control

## CC1=NN(c2cccc(S(=O)(=O)O)c2)C(=O)C1N=Nc1cc(Cl)cc(S(=O)(=O)O)c1O.CC1=NN(c2cccc(S(=O)(=O)O)c2)C(=O)C1N=Nc1cc(Cl)cc(S(=O)(=O)O)c1O.[Cr] (stereo not drawn)
endpoint: median survival time, dose: 25.0 mg/kg/injection, schedule: Q01DX009 (ip), vehicle: saline
  T/C: 113 % of control
endpoint: median survival time, dose: 50.0 mg/kg/injection, schedule: Q01DX009 (ip), vehicle: saline
  T/C: 107 % of control
[12]
  T/C: 101 % of control
endpoint: median survival time, dose: 200.0 mg/kg/injection, schedule: Q01DX009 (ip), vehicle: saline
  T/C: 118 % of control
endpoint: median survival time, dose: 400.0 mg/kg/injection, schedule: Q01DX009 (ip), vehicle: saline
  T/C: 120 % of control

## Clc1nnc(Cl)c(Cl)c1Cl
endpoint: mean survival time, dose: 1.56 mg/kg/injection, schedule: Q04DX003 (ip), vehicle: saline with Tween-80
  T/C: 88 % of control
endpoint: mean survival time, dose: 3.13 mg/kg/injection, schedule: Q04DX003 (ip), vehicle: saline with Tween-80
  T/C: 88 % of control

## COc1cc([N+](=O)[O-])c(C)[n+]([O-])n1
endpoint: mean survival time, dose: 25.0 mg/kg/injection, schedule: Q04DX002 (ip), vehicle: saline with Tween-80
  T/C: 96 % of control
endpoint: mean survival time, dose: 50.0 mg/kg/injection, schedule: Q04DX002 (ip), vehicle: saline with Tween-80
  T/C: 104 % of control

## NC(=O)c1[nH]cnc1/N=N/N(CCF)CCF
endpoint: mean survival time, dose: 8.8 mg/kg/injection, schedule: Q01DX001 (ip), vehicle: other
  T/C: 121 % of control
endpoint: mean survival time, dose: 30.0 mg/kg/injection, schedule: Q01DX001 (ip), vehicle: other
  T/C: 158 % of control

## OC(c1ccccc1)(c1ccccc1)c1cc2ccccc2[nH]1
[4]
  T/C: 89 % of control
[6]
  T/C: 89 % of control

## N#CC(c1ccc([N+](=O)[O-])cc1)C(CC(=O)c1ccccc1)c1ccccc1 (stereo not drawn)
[9]
  T/C: 96 % of control
[10]
  T/C: 101 % of control
endpoint: mean survival time, dose: 200.0 mg/kg/injection, schedule: Q01DX009 (ip), vehicle: Klucel (hydroxypropylcellulose) (HPC)
  T/C: 93 % of control
